Like-named read-outs stand apart in the source and are kept apart here.
Key:
[1] = system: Duck Hepatitis B Virus (DHBV); assay: Inactivation of Duck Hepatitis B Virus in platelet concentrate, read out by PCR amplification; assay type: biochemical; settings: 5 J/cm^2 UVA
Description: This example describes the protocol for inactivation of Duck Hepatitis B Virus (DHBV), a model for Hepatitis B Virus, using compounds described herein.
DHBV in duck yolk was added to platelet concentrate (PC) to a final concentration of 2 x 10^7 particles per mL and mixed by gentle rocking for ≥15 min. Psoralens S-70, S-59 and AMT were added to 3 mL aliquots of PC in a Teflon™ mini-bag at concentrations of […]. Samples, including controls without added psoralen, were irradiated with 5 J/cm^2 UVA, with mixing at 1 J/cm^2 increments. After irradiation, leukocytes and platelets were separated from virus by centrifugation. The supernatant containing DHBV was digested overnight with 50 µg/mL proteinase K in a buffer containing 0.5% sodium dodecyl sulphate, 20 mM Tris buffer, pH 8.0, and 5 mM EDTA at 55°C. Samples were extracted with phenolchloroform and chloroform, followed by ethanol precipitation. Purified DNA was then used in PCR amplification reactions with a starting input of 10^6 DHBV genomes from each sample. PCR amplicons were generated using primers pairs DCD03/DCD05 (127 bp), DCD03/DCD06 (327 bp) and DCD03/DCD07 (1072 bp). PCR was performed in a standard PCR buffer containing 0.2 mM each deoxyribonucleoside 5'-triphosphates (dATP, dGTP, dCTP, and dTTP), […] each primer, and 0.5 units Taq polymerase per […]. 30 cycles of amplification were performed with the following thermal profile: 95°C 30 sec, 60° C 30 sec, 72° C 1 min. The amplification was followed by a 7 min incubation at 72° C to yield full length products. [[…]-^32P] dCTP was added at an amount of […] per […] in order to detect and quantify the resulting products. Products were separated by electrophoresis on denaturing polyacrylamide slab gels and counted. The absence of signal in a given reaction was taken to indicate effective inactivation of DHBV.

[2] = system: Salmonella typhimurium tester strains TA97a, TA98, TA100, TA102, TA1537 and TA1538
Summary of the method: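 Ames pre-incubation test in S. typhimurium TA97a, TA98, TA1537, TA1538 (frameshift) and TA100, TA102 (base-substitution), with or without 10% Aroclor 1254-induced rat liver S-9. Test solutions at 0–500 µg/mL pre-incubated 20 min at 37 °C, plated in histidine/biotin top agar; revertant colonies counted after 44 h at 37 °C.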

In the case of Cc1oc2c(C)c3oc(=O)cc(C)c3cc2c1CN [AMT, 4'-Aminomethyl-4,5',8-trimethylpsoralen, reference compound], the “PCR amplification of the 1072 bp amplicon of DHBV” value [1] is reported as “a signal could be detected”, the “PCR amplification of the 1072 bp amplicon of DHBV” value ([1]; 70 and 100 mM in PC) is reported as “inhibited PCR amplification” and the “revertant colonies, TA97a +S9” value ([2]; 0.1 µg/plate) is reported as -23. For the same compound, the “revertant colonies, TA97a -S9” value ([2]; 0.1 µg/plate) was 14, the “revertant colonies, TA98 +S9” value ([2]; 0.1 µg/plate) was 1 and the “revertant colonies, TA98 -S9” value ([2]; 0.1 µg/plate) was 3. The “revertant colonies, TA100 +S9” value ([2]; 0.1 µg/plate) was -16, the “revertant colonies, TA100 -S9” value ([2]; 0.1 µg/plate) was -10 and the “revertant colonies, TA102 +S9” value ([2]; 0.1 µg/plate) was -20. For the same compound, the “revertant colonies, TA102 -S9” value ([2]; 0.1 µg/plate) was 27, the “revertant colonies, TA1537 +S9” value ([2]; 0.1 µg/plate) was 2 and the “revertant colonies, TA1537 -S9” value ([2]; 0.1 µg/plate) was 0. The “revertant colonies, TA1538 +S9” value ([2]; 0.1 µg/plate) was 3, the “revertant colonies, TA1538 -S9” value ([2]; 0.1 µg/plate) was 3 and the “revertant colonies, TA97a +S9” value ([2]; 0.5 µg/plate) was 32. The “revertant colonies, TA97a -S9” value ([2]; 0.5 µg/plate) was 9, the “revertant colonies, TA98 +S9” value ([2]; 0.5 µg/plate) was 3 and the “revertant colonies, TA98 -S9” value ([2]; 0.5 µg/plate) was 5. For the same compound, the “revertant colonies, TA100 +S9” value ([2]; 0.5 µg/plate) was -12, the “revertant colonies, TA100 -S9” value ([2]; 0.5 µg/plate) was 13 and the “revertant colonies, TA102 +S9” value ([2]; 0.5 µg/plate) was 5. For the same compound, the “revertant colonies, TA102 -S9” value ([2]; 0.5 µg/plate) was 47, the “revertant colonies, TA1537 +S9” value ([2]; 0.5 µg/plate) was 2 and the “revertant colonies, TA1537 -S9” value ([2]; 0.5 µg/plate) was 3. For the same compound, the “revertant colonies, TA1538 +S9” value ([2]; 0.5 µg/plate) was 13, the “revertant colonies, TA1538 -S9” value ([2]; 0.5 µg/plate) was 4 and the “revertant colonies, TA97a +S9” value ([2]; 1 µg/plate) was 32. The “revertant colonies, TA97a -S9” value ([2]; 1 µg/plate) was 54, the “revertant colonies, TA98 +S9” value ([2]; 1 µg/plate) was 21 and the “revertant colonies, TA98 -S9” value ([2]; 1 µg/plate) was 5. For the same compound, the “revertant colonies, TA100 +S9” value ([2]; 1 µg/plate) was -19, the “revertant colonies, TA100 -S9” value ([2]; 1 µg/plate) was 17 and the “revertant colonies, TA102 +S9” value ([2]; 1 µg/plate) was -17. The “revertant colonies, TA102 -S9” value ([2]; 1 µg/plate) was 88, the “revertant colonies, TA1537 +S9” value ([2]; 1 µg/plate) was 3 and the “revertant colonies, TA1537 -S9” value ([2]; 1 µg/plate) was 5. For the same compound, the “revertant colonies, TA1538 +S9” value ([2]; 1 µg/plate) was 37, the “revertant colonies, TA1538 -S9” value ([2]; 1 µg/plate) was 4 and the “revertant colonies, TA97a +S9” value ([2]; 5 µg/plate) was 149. The “revertant colonies, TA97a -S9” value ([2]; 5 µg/plate) was 73, the “revertant colonies, TA98 +S9” value ([2]; 5 µg/plate) was 232 and the “revertant colonies, TA98 -S9” value ([2]; 5 µg/plate) was 16. The “revertant colonies, TA100 +S9” value ([2]; 5 µg/plate) was -6, the “revertant colonies, TA100 -S9” value ([2]; 5 µg/plate) was 59 and the “revertant colonies, TA102 +S9” value ([2]; 5 µg/plate) was 51. For the same compound, the “revertant colonies, TA102 -S9” value ([2]; 5 µg/plate) was 266, the “revertant colonies, TA1537 +S9” value ([2]; 5 µg/plate) was 22 and the “revertant colonies, TA1537 -S9” value ([2]; 5 µg/plate) was 44. The “revertant colonies, TA1538 +S9” value ([2]; 5 µg/plate) was 177, the “revertant colonies, TA1538 -S9” value ([2]; 5 µg/plate) was 13 and the “revertant colonies, TA98 +S9” value ([2]; 10 µg/plate) was 403. The “revertant colonies, TA98 -S9” value ([2]; 10 µg/plate) was 20, the “revertant colonies, TA100 +S9” value ([2]; 10 µg/plate) was 17 and the “revertant colonies, TA100 -S9” value ([2]; 10 µg/plate) was 105. For the same compound, the “revertant colonies, TA1537 +S9” value ([2]; 10 µg/plate) was 30, the “revertant colonies, TA1537 -S9” value ([2]; 10 µg/plate) was 52 and the “revertant colonies, TA1538 +S9” value ([2]; 10 µg/plate) was 255. For the same compound, the “revertant colonies, TA1538 -S9” value ([2]; 10 µg/plate) was 14, the “revertant colonies, TA98 +S9” value ([2]; 50 µg/plate) was 620 and the “revertant colonies, TA98 -S9” value ([2]; 50 µg/plate) was 69. For the same compound, the “revertant colonies, TA100 +S9” value ([2]; 50 µg/plate) was 52, the “revertant colonies, TA100 -S9” value ([2]; 50 µg/plate) was 73 and the “revertant colonies, TA1537 +S9” value ([2]; 50 µg/plate) was 94. For the same compound, the “revertant colonies, TA1537 -S9” value ([2]; 50 µg/plate) was 2688, the “revertant colonies, TA98 +S9” value ([2]; 100 µg/plate) was 745 and the “revertant colonies, TA98 -S9” value ([2]; 100 µg/plate) was 114. The “revertant colonies, TA100 +S9” value ([2]; 100 µg/plate) was 85, the “revertant colonies, TA100 -S9” value ([2]; 100 µg/plate) was 75 and the “revertant colonies, TA1537 +S9” value ([2]; 100 µg/plate) was 686. The “revertant colonies, TA1537 -S9” value ([2]; 100 µg/plate) was 2058, the “revertant colonies, TA1537 +S9” value ([2]; 100 µg/plate, Table 19 (B) experiment, background 7) was 500 and the “revertant colonies, TA1537 -S9” value ([2]; 100 µg/plate, Table 19 (B) experiment, background 8) was 608. The “revertant colonies, TA98 +S9” value ([2]; 250 µg/plate) was 933, the “revertant colonies, TA98 -S9” value ([2]; 250 µg/plate) was 112 and the “revertant colonies, TA100 +S9” value ([2]; 250 µg/plate) was 89. The “revertant colonies, TA100 -S9” value ([2]; 250 µg/plate) was 24, the “revertant colonies, TA1537 +S9” value ([2]; 250 µg/plate) was 3738 and the “revertant colonies, TA1537 -S9” value ([2]; 250 µg/plate) was 434. For the same compound, the “frameshift mutagenicity (Ames, summary)” value ([2]; two-fold or greater increase in revertants above background and dose dependent response) was “frameshift mutagenicity at between 5 and 10 µg/plate in TA97a and TA98, at 5µg/plate in TA1537 and at 1 µg/plate in TA1538” and the “base-substitution mutagenicity (Ames, summary)” value ([2]; two-fold or greater increase in revertants above background and dose dependent response, TA100, TA102) was “no significant base-substitution mutations”.
